How the values were obtained:
ICAM-1 = test: Flow cytometry of TNFα-induced ICAM-1 expression in HUVEC; type: cell-based, human; conditions: TNFα 20 ng/mL 24 h
Description: (§1) The cells were collected from the flasks using accutase (StemPro® Accutase® Cell Dissociation Reagent, ThermoFischer Scientific, Waltham, MA).
(§2) Then they were washed and incubated for 1 h with a APC-conjugated mAb antibody against human VCAM-1 (100 µg/mL; clone STA, BioLegend, San Diego, CA), a FITC- conjugated mAb against human ICAM-1 (400 µg/mL; clone HA58, BioLegend, San Diego, CA), a PE-conjugated mAb against human CX3CL1 (1.25 µg/mL; clone 51637, R&D Systems, Minneapolis, MN) or with a APC-conjugated mAb antibody against human CXCL16 (clone 256213, R&D Systems, Abingdon, UK), all at a dilution of 1:25 in 3% BSA/PBS. The samples were analyzed using a BD FACSVerse Flow Cytometer (BD Biosciences, San Jose, CA).

[1] = system: mononuclear cell adhesion to HUVEC induced by TNFα; test: Parallel flow chamber: mononuclear cell adhesion to TNFα-stimulated HUVEC; type: cell-based, human
Description: The parallel flow camera technique was used, which allows viewing cell adhesion under dynamic physiological flow conditions.
In the execution of this study, neutrophils and mononuclear cells were perfused through monolayers of HUVEC previously stimulated, or not, with TNFα (20 ng/mL) for 24 h. For this purpose, the neutrophils and human mononuclear cells were obtained in suspension from healthy volunteers by the Ficoll-Hypaque method, centrifuging by density gradient. Freshly isolated cells (1 × 10^6/mL) were perfused through the monolayer of endothelial cells (HUVEC) stimulated, or not, with TNFα for 24 h. In all the experiments the interactions of the leukocytes were determined after being perfused for 5 min at 0.5 dyne/cm^2. The HUVEC plates were placed in the flow chamber (GlycoTech, Gaithersburg, MD) and a camera was coupled to a phase-contrast inverted microscope (Axio Observer A1 Carl Zeiss microscope, Thornwood, NY) to view cell adhesion (20x lens and 10x eyepiece). In addition, the images were recorded on video for subsequent analysis.

CX3CL1 = test: Flow cytometry of TNFα-induced CX3CL1 (fractalkine) expression in HUVEC; type: cell-based
Description: as §1, §2

hPPARα = biological target: T1, hPPARα (Homo sapiens, UniProt Q07869); test: PPAR/Gal4 chimera luciferase reporter transactivation assay in transiently transfected Cos-7 cells (hPPARα); type: cell-based
T1 sequence (Q07869 167-468): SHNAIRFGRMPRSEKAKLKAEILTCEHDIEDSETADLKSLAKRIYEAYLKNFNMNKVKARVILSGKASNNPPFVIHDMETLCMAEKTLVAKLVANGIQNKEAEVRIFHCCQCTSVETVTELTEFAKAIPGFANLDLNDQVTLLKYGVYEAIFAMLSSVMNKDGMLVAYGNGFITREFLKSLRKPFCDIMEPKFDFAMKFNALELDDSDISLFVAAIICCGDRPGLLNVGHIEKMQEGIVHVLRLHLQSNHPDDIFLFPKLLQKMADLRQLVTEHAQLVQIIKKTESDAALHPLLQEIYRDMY
Description: (§3) The cells were maintained under standard culture conditions (Dulbecco modified minimum essential Eagle medium, DMEM) supplemented with 10% fetal calf serum (FCS) at 37°C in 5% […] CO2 atmosphere. The medium was changed every 2 days. The Cos-7 cells were seeded in 60 mm discs at a density of 5.5 × 10^5 cells/disc in DMEM supplemented with 10% FCS and incubated at 37°C for 16 h before transfection. The cells were transfected in DMEM using jetPEI, with reporter (pG5-TK-pGL3) and expression (pGal4-h, hPPARα or hPPARγ) plasmids. The expression plasmid pCMV-β-galactosidase was cotransfected as a control for transfection efficacy. After 16 h the transfection was stopped adding DMEM supplemented with 10% FCS, and the cells were trypsinised and seeded in 96-well plates and incubated for 6 h in DMEM containing 10% FCS. Subsequently, the cells were incubated for 24 h in DMEM containing 0.2% FCS and increasing concentrations of the compounds or the vehicle (DMSO, maximum concentration 0.1%) were tested. Finally, the cells were washed once with PBS cooled on ice, lysed and the luciferase and β-galactosidase assays were performed.
(§4) To evaluate the compounds for PPAR transcriptional activity, the tests were conducted in a PPAR/Gal4 chimera of a human luciferase reporter gene to determine the maximum transactivation response of each compound.

hPPARγ = biological target: T2, hPPARγ (Homo sapiens, UniProt P37231); test: PPAR/Gal4 chimera luciferase reporter transactivation assay in transiently transfected Cos-7 cells (hPPARγ); type: cell-based
T2 sequence (P37231 238-505): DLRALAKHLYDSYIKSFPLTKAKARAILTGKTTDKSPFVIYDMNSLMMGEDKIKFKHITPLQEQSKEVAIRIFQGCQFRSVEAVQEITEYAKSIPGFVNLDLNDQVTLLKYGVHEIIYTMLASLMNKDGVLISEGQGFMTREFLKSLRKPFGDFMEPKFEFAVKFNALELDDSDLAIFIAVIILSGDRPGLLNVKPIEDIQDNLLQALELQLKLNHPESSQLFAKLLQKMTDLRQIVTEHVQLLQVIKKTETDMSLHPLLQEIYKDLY
Description: as §3, §4

p38 MAPK = test: Flow cytometry of TNFα-induced p38 MAPK phosphorylation in HUVEC; type: cell-based, human; conditions: TNFα 20 ng/mL 1 h
Description: (§5) HUVEC were previously incubated for 24 h with compound 1 (10 µM), for use according to the present invention, or with compound 9 (3 µM), of the invention, and stimulated for 1 h with TNFα (20 ng/mL). The endothelial cells were fixed with BD Cytofix Fixation Buffer (BD Biosciences, San Jose, CA) and permeabilized with BD Sol Perm III solution (BD Biosciences, San Jose, CA) and sequentially stained with a 1:10 dilution of a PE-conjugated mAb antibody against human p65 (pS529, clone K10-895.12.50; BD Biosciences, San Jose, CA) and a 1:10 dilution of Alexa Fluor-conjugated mAb antibody against human p38 MAPK ([…], clone 36/p38; BD Biosciences, San Jose, CA). The cells were analyzed with a BD FACSVerse flow cytometer (BD Biosciences, San Jose, CA).

NF-κB (p65) = test: Flow cytometry of TNFα-induced p65 (NF-κB) phosphorylation in HUVEC; type: cell-based, human; conditions: TNFα 20 ng/mL 1 h
Description: as §5

VCAM-1 = test: Flow cytometry of TNFα-induced VCAM-1 expression in HUVEC; type: cell-based, human; conditions: TNFα 20 ng/mL 24 h
Description: as §1, §2

liver = test: Treatment of ob/ob mice: liver weight and liver triglycerides; type: in vivo; conditions: oral, 4 days
Text: 6 animals were used in each group in independent experiments (n=6).

[2] = ratio of IC50, mononuclear cell adhesion

## C/C(=C\CCC1(C)CCc2cc(O)cc(C)c2O1)CC/C=C(\C)C(=O)O (stereo not shown) [Polycerasoidol, 1, polycerasoidol]
ICAM-1; 10 µM, 20 h pretreatment
  inhibition of ICAM-1 expression induced by TNFα: 23.8%
[1]; Homo sapiens, HUVEC, pretreatment 20 h, TNFα 20 ng/mL 24 h, perfusion 5 min at 0.5 dyn/cm2, read-out: IC50 adhesion of HUVEC-mononuclear cells
  IC50: 4.9 µM
[1]; [2]
  times less potent than rosiglitazone: 5
CX3CL1; 10 µM, TNFα 24 h
  reduced the expression of fractalkine (CX3CL1): 77.6%
hPPARα; COS-7, read-out: hPPARα Efficacy (%)
  Emax: 107%
hPPARγ; COS-7, read-out: hPPARγ Efficacy (%)
  Emax: 95%
p38 MAPK; 10 µM
  decrease of the activation of p38 MAPK: 63.4%
NF-κB (p65); 10 µM
  activation of NF-κB induced by TNFα: inhibit significantly
VCAM-1; 10 µM, 20 h pretreatment
  inhibition of VCAM-1 expression induced by TNFα: 87.8%

## CCOC(=O)CCC(C)=CCCC1(C)CCc2cc(OCc3ccc(F)cc3)ccc2O1 (stereo not shown) [Compound 9]
ICAM-1; 3 µM
  expression of ICAM-1 induced by TNFα: but not ICAM-1
[1]; [2]
  potency times greater than polycerasoidol: ~16
  potency times greater than rosiglitazone: approximately 3.6
CX3CL1; 3 µM, TNFα 20 ng/mL 24 h
  expression of CX3CL1 induced by TNFα: significant decrease
hPPARα; maximum activity as percentage of the maximum activity of WY-14643
  hPPARα Efficacy (%): 251%
hPPARα; read-out: hPPARα EC50, Cos-7 cells, 24 h, tested 0.001 to 10 µM
  EC50: 0.3 µM
hPPARγ; maximum activity as percentage of the maximum activity of rosiglitazone
  hPPARγ Efficacy (%): 57%
hPPARγ; read-out: hPPARγ EC50, Cos-7 cells, 24 h, tested 0.001 to 10 µM
  EC50: 0.4 µM
p38 MAPK; 3 µM
  decrease of the activation of p38 MAPK: 71.9%
liver; 30 mg/Kg/d
  triglyceride content in the liver compared to the ob/ob control group: did not accumulate significantly
liver
  liver weight with respect to the ob/ob control group: non-significant weight increase
NF-κB (p65); 3 µM
  activation of NF-κB induced by TNFα: inhibit significantly
VCAM-1; 3 µM
  expression of VCAM-1 induced by TNFα: significant decrease

— patent EP3733658B1, “PRENYLATED BENZOPYRANES AS PPAR AGONISTS” (Universitat de València, priority 2017, dated 2019)
